Assay results from patent US20210130346A1, “Bromodomain Inhibitors” (AbbVie Inc., priority 2017, published 2021).

Key:
SKM-1 xenograft tumors = assay: Growth inhibition of SKM-1 xenograft tumors implanted in mice; type: in vivo, female SCID mice; conditions: SCID mice
Protocol: The effect of compounds of the examples to inhibit the growth of SKM-1 xenograft tumors implanted in mice was evaluated. A suspension of cancer cells (5×10^6 per 0.1 mL) prepared in RPMI culture medium (Invitrogen, Carlsbad, Calif.) was diluted 1:1 with a solution of Matrigel™ (BD Biosciences, Franklin Lakes, N.J.) and inoculated subcutaneously into the right hind flank of female SCID (Charles River Labs) mice. Randomization into treatment and vehicle control groups (8/group) occurred when the mean tumor volume reached approximately 250 mm^3. Example 3 was formulated in 10% ethanol, 30% PEG 400, 60% Phosol-50PG. Example 34 was formulated as a nanosuspension (2% low viscosity hydroxypropylcellulose polymer/0.2% sodium dodecyl sulfate in water). Administration of compound or vehicle was initiated on the day following randomization and continued for […]. Tumors were measured twice a week throughout the treatment period using a pair of calipers and tumor volumes were calculated according to the formula V=L×W^2/2 (V: volume, mm^3; L: length, mm. W: width, mm). Tumor growth inhibition was calculated based on the mean tumor volume measured on the first day that the mean volume of the vehicle group exceeded 2000 mm^3 according to the formula: % TGI=100−(100×(mean tumor volume of treatment group/mean tumor volume of control group))

BRD4 (BDI_K57-E168) = BRD4 (BDI_K57-E168) (Homo sapiens, UniProt O60885); assay: TR-FRET bromodomain binding assay, BRD4 first bromodomain (BDI); conditions: mean Ki; 12 nM His tagged BRD4 (BDI_K57-E168), 100 nM Alexa647 probe; Ki calculated from IC50, probe Kd and probe concentration
Protocol: A time-resolved fluorescence resonance energy transfer (TR-FRET) assay was used to determine the affinities of compounds of the Examples listed in Table 1 for each bromodomain of BRD4. […] An Alexa647-labeled BET-inhibitor was used as the fluorescent probe in the assay.
Compound dilution series were prepared in DMSO via an approximately 3-fold serial dilution. Compound dilutions were added directly into white, low-volume assay plates (Perkin Elmer Proxiplate 384 Plus# 6008280) using a Labcyte Echo in conjunction with Labcyte Access and Thermo Multidrop CombinL robotics. Compounds were then suspended in eight microliters (μL) of assay buffer (20 mM Sodium Phosphate, pH 6.0, 50 mM NaCl, 1 mM Ethylenediaminetetraacetic acid disodium salt dihydrate, 0.01% Triton X-100, 1 mM DL-Dithiothreitol) containing His-tagged bromodomain, Europium-conjugated anti-His antibody (Invitrogen PV5596) and Alexa-647-conjugated probe.
After a one-hour equilibration at room temperature, TR-FRET ratios were determined using an Envision multilabel plate reader (Ex 340, Em 495/520).
TR-FRET data were normalized to the means of 24 no-compound controls (“high”) and 8 controls containing 1 μM un-labeled probe (“low”). Percent inhibition was plotted as a function of compound concentration and the data were fit with the 4 parameter logistic equation to obtain IC50s. Inhibition constants (Ki) were calculated from the IC50s, probe Kd and probe concentration.

SMILES	Ki (BRD4 (BDI_K57-E168)) [µM]	further results
CN1C(=O)[C@]2(C[C@@H]2c2cn(C)c(=O)c3[nH]c(C(=O)NC4CC4)cc23)c2ccccc21 [Example 3, N-cyclopropyl-6-methyl-4-[(1S,2R)-1′-methyl-2′-oxo-1′,2′-dihydrospiro[cyclopropane-1,3′-indol]-2-yl]-7-oxo-6,7-dihydro-1H-pyrrolo[2,3-c]pyridine-2-carboxamide]	3.25	% TGI (SKM-1 xenograft tumors; dose 5 mg/kg/d, formulated in 10% ethanol, 30% PEG 400, 60% Phosol-50PG): 27%; % TGI (SKM-1 xenograft tumors; dose 15 mg/kg/d, formulated in 10% ethanol, 30% PEG 400, 60% Phosol-50PG): 33%; % TGI (SKM-1 xenograft tumors; dose 45 mg/kg/d, formulated in 10% ethanol, 30% PEG 400, 60% Phosol-50PG): 43%; % TGI (SKM-1 xenograft tumors; dose 100 mg/kg/d, formulated in 10% ethanol, 30% PEG 400, 60% Phosol-50PG): 58%; % TGI (SKM-1 xenograft tumors; dose 150 mg/kg/d, formulated in 10% ethanol, 30% PEG 400, 60% Phosol-50PG): 52%
Cn1cc([C@H]2C[C@]23C(=O)N(CC(F)(F)F)c2ccccc23)c2cc(C(=O)NC3CC3)[nH]c2c1=O [Example 24, N-cyclopropyl-6-methyl-7-oxo-4-[(1S,2R)-2′-oxo-′-(2,2,2-trifluoroethyl)-1′,2′-dihydrospiro[cyclopropane-1,3′-indol]-2-yl]-6,7-dihydro-1H-pyrrolo[2,3-c]pyridine-2-carboxamide]	4.21	
Cn1cc([C@@H]2C[C@@]23C(=O)N(CC(F)(F)F)c2ccccc23)c2cc(C(=O)NC3CC3)[nH]c2c1=O [Example 25, N-cyclopropyl-6-methyl-7-oxo-4-[(1R,2S)-2′-oxo-′-(2,2,2-trifluoroethyl)-1′,2′-dihydrospiro[cyclopropane-1,3′-indol]-2-yl]-6,7-dihydro-1H-pyrrolo[2,3-c]pyridine-2-carboxamide]	> 13	
CN1C(=O)[C@]2(C[C@@H]2c2cn(C)c(=O)c3[nH]c(-c4cnn(C)c4)cc23)c2ccccc21 [Example 34, (1S,2R)-1′-methyl-2-[6-methyl-2-(1-methyl-1H-pyrazol-4-yl)-7-oxo-6,7-dihydro-1H-pyrrolo[2,3-c]pyridin-4-yl]spiro[cyclopropane-1,3′-indol]-2′(1H)-one]	0.441	% TGI (SKM-1 xenograft tumors; dose 38 mg/kg/d, formulated as a nanosuspension): 42%; % TGI (SKM-1 xenograft tumors; dose 75 mg/kg/d, formulated as a nanosuspension): 74%
CN1C(=O)[C@@]2(C[C@H]2c2cn(C)c(=O)c3[nH]c(-c4cnn(C)c4)cc23)c2ccccc21 [Example 35, (1R,2S)-1′-methyl-2-[6-methyl-2-(1-methyl-1H-pyrazol-4-yl)-7-oxo-6,7-dihydro-1H-pyrrolo[2,3-c]pyridin-4-yl]spiro[cyclopropane-1,3′-indol]-2′(1H)-one]	1.3	
CN1C(=O)[C@]2(C[C@@H]2c2cn(C)c(=O)c3[nH]c(-c4cccnc4)cc23)c2ccccc21 [Example 48, (1S,2R)-1′-methyl-2-[6-methyl-7-oxo-2-(pyridin-3-yl)-6,7-dihydro-1H-pyrrolo[2,3-c]pyridin-4-yl]spiro[cyclopropane-1,3′-indol]-2′(1H)-one]	1.42	
CN1C(=O)[C@@]2(C[C@H]2c2cn(C)c(=O)c3[nH]c(-c4cccnc4)cc23)c2ccccc21 [Example 49, (1R,2S)-1′-methyl-2-[6-methyl-7-oxo-2-(pyridin-3-yl)-6,7-dihydro-1H-pyrrolo[2,3-c]pyridin-4-yl]spiro[cyclopropane-1,3′-indol]-2′(1H)-one]	4.14	
CN1C(=O)[C@]2(C[C@@H]2c2cn(C)c(=O)c3[nH]c(-c4ccnc(C(F)(F)F)c4)cc23)c2ccccc21 [Example 52, (1S,2R)-1′-methyl-2-{6-methyl-7-oxo-2-[2-(trifluoromethyl)pyridin-4-yl]-6,7-dihydro-1H-pyrrolo[2,3-c]pyridin-4-yl}spiro[cyclopropane-1,3′-indol]-2′(1H)-one]	> 13	
CN1C(=O)[C@@]2(C[C@H]2c2cn(C)c(=O)c3[nH]c(-c4ccnc(C(F)(F)F)c4)cc23)c2ccccc21 [Example 53, (1R,2S)-1′-methyl-2-{6-methyl-7-oxo-2-[2-(trifluoromethyl)pyridin-4-yl]-6,7-dihydro-1H-pyrrolo[2,3-c]pyridin-4-yl}spiro[cyclopropane-1,3′-indol]-2′(1H)-one]	2.82	
